Experimental data taken from patent US8114408B2 (priority 2007, dated 2012).
Values joined by “and” are separate entries in the source; they are usually repeats but may differ in a detail not shown here. Equal entries are not always repeated.

Test system: antibodies to pathogenic Newcastle disease virus
Format: binding, chicken

3 (RRQRRF) [compound 3]
number of positive chickens/number of tested chickens: 1/5(0.81) and 0/5(0.70) and 4/4(2.45)
